Molecular target: T1, ntMGAM (purchased as maltase-glucoamylase from rice, EC 3.2.1.20, Sigma G9259)
T1 construct: gene Os06g0675700; commercial native rice alpha-glucosidase; no human protein source or expression described
Test: NMR transverse relaxation (CPMG) titration
Type: binding
Conditions: pH 6.8, 310 K, 10 mM sodium phosphate, 10% D2O, protein 18 μM; signal H-9; unit printed as M^-1 under a Kd heading
Description: NMR transverse relaxation (CPMG) titration on ntMGAM (purchased as maltase-glucoamylase from rice, EC 3.2.1.20, Sigma G9259)

C[C@H]1O[C@H](O[C@H]2[C@H](O)[C@@H](O)[C@@H](O[C@H]3[C@H](O)[C@@H](O)C(O)O[C@@H]3CO)O[C@@H]2CO)[C@H](O)[C@@H](O)[C@@H]1N[C@H]1C=C(CO)[C@@H](O)[C@H](O)[C@H]1O (stereo partly shown) [acarbose]
K d(M^-1): (5.4±0.1)×10^−5 M^−1
